Experimental findings from PubChem BioAssay (NCI) are described below.

The term GI50 denotes the concentration at which growth is held to half of that of the control. The TGI is the concentration giving total growth inhibition. Low readings indicate more potent growth arrest, high ones less potent growth arrest.

Test in all cases: DTP human tumour cell line panel, 48 h
Assay [1] deals with HCC-2998 colon.
Assay [2] concerns IGROV1 ovarian.
Assay [3] relates to NCI-H522 lung.
Assay [4] relates to NCI-H460 lung.
The subject of assay [5] is MDA-MB-231 breast.
The test system of assay [6] is A549 NSCLC.
Assay [7] has as its system NCI-H23 lung.
Assay [8] deals with SK-MEL-5 melanoma.
The subject of assay [9] is HOP-92 NSCLC.
The subject of assay [10] is MCF7 breast.

Values joined by “and” are separate entries in the source; they are usually repeats but may differ in a detail not shown here. Equal values may be shown once.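 Where inhibition never reached the appropriate level, the endpoint shown equals the highest concentration tested. Otherwise, values were interpolated linearly from a five-concentration, 48-hour dose response in 96-well plates. Abbreviation: GI50, concentration required for 50% inhibition of growth. Definition used: TGI = concentration required for complete inhibition of growth.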

With `COc1ccccc1-c1ccc2nc(NC(=O)Nc3cc(C(F)(F)F)cc(C(F)(F)F)c3)sc2c1`, the GI50 in assay [1] was 2.65 µM; in [2], 2.83 µM; in assay [3], 1.76 µM; in assay [4], 2.26 µM; in assay [5], 1.95 µM; in assay [6] it was 3.19 µM. Further, the GI50 in assay [7] is 2.02 µM; in assay [8], 1.57 µM; in [9], 1.19 µM; in assay [10] it was 2.28 µM. Moreover, the TGI in assay [1] was 11.1 µM; in assay [2], 10.7 µM; in assay [3], 9.35 µM; in [4] it was 6.12 µM; in assay [5] it was 4.24 µM; in assay [6], 11.8 µM. Moreover, the TGI in [7] turned out to be 7.09 µM; in [8] it was 2.98 µM; in assay [9], 4.31 µM; in assay [10] it was 10.9 µM.

As to `Nc1ccc(-c2ccc(Nc3cc(S(=O)(=O)O)c(N)c4c3C(=O)c3ccccc3C4=O)cc2)c(S(=O)(=O)O)c1`, the TGI in [1], in assay [2], in assay [3], in [4], in assay [5] and in assay [6] was greater than 100 µM each time. Besides, the TGI in assay [7], in [8], in [9] and in [10] was greater than 100 µM each time.

On to `COc1ccc2c(O)c(/C=C3\N=Nc4ncccc43)oc2c1C[C@H]1CCNC[C@H]1F`, for which the GI50 in assay [1] was 2.38 µM; in assay [2], 0.353 µM; in [3], 0.206 µM; in assay [4], 0.388 µM; in assay [5], 0.184 µM; in [6], 1.74 µM. For the same molecule, the GI50 in [7] is 0.475 µM; in [8] it was 0.942 µM; in [9], 2.39 µM; in assay [10] it was 0.207 µM. Moreover, the TGI in assay [1] worked out at 11.5 µM; in assay [2], 5.06 µM; in assay [3], 2.23 µM; in [4], 1.8 µM; in [5], 3.02 µM; in [6], 10.8 µM. Besides, the TGI in assay [7] amounted to 4.7 µM; in assay [8], 10.6 µM; in assay [9] it was 11.3 µM; in assay [10], 9.18 µM.

Consider `Cc1cc(O)c(C2=NN(c3ccc(S(N)(=O)=O)cc3)C(c3ccccc3O)C2)cc1Cl` (stereo not drawn), for which the GI50 in assay [1] is 2 µM; in [2], 1.07 µM; in assay [3], 1.91 µM; in [4], 2.07 µM; in assay [5], 1.91 µM; in [6] it was 2.67 µM. Further, the GI50 is 2 µM in assay [7], 5.6 µM in [8], 1.46 µM in assay [9] and 2.25 µM in [10]. Moreover, the TGI in assay [1] is 3.81 µM; in assay [2], 5.66 µM; in assay [3], 4.72 µM; in assay [4], 4.38 µM; in assay [5], 5.11 µM; in [6] it was 7.85 µM. The TGI in [7] was 4.38 µM; in assay [8], 18.2 µM; in [9] it was 6.51 µM; in assay [10], 6.12 µM.

For `Fc1c[c-]c(-c2ccccn2)c(F)c1.[CH3-].[Pt+2].c1ccc([PH+](c2ccccc2)c2ccccn2)cc1`, the GI50 in assay [1] was 1.83 µM; in assay [2], 1.71 µM; in [3], 1.94 µM; in assay [4], 1.63 µM; in [5] it was 1.61 µM; in assay [6] it was 2.66 µM. Also, the GI50 in [7] was 1.57 µM; in [8], 1.6 µM; in [9] it was 1.18 µM; in [10], 1.22 µM. In addition, the TGI in [1] is 3.53 µM; in [2] it was 5.02 µM; in assay [3] it was 8.18 µM; in assay [4], 4.91 µM; in assay [5] it was 3.31 µM; in [6], greater than 100 µM. Further, the TGI in assay [7] turned out to be 3.64 µM; in assay [8], 3 µM; in assay [9], 2.68 µM; in assay [10], 3.23 µM.

As for `COc1cc(OC)cc(-c2ccc(-c3ccc(C(=N)N)s3)s2)c1`, the GI50 in assay [1] was 1.03 µM; in [2] it was 2.03 µM; in assay [3], 1.77 µM; in assay [4], 0.482 µM; in assay [5], 0.8 µM; in assay [6], 1.63 µM. Moreover, the GI50 is 1.66 µM in [7]; 1.41 µM in assay [8]; 0.883 µM and 0.528 µM in [9]; 0.271 µM in assay [10]. In addition, the TGI in assay [1] is 2.58 µM; in assay [2], 3.99 µM; in assay [3] it was 3.55 µM; in assay [4], 1.79 µM; in assay [5] it was 2.62 µM; in assay [6] it was 3.37 µM. Further, the TGI in assay [7] is 3.34 µM; in assay [8], 2.81 µM; in assay [9], 2.39 µM and 2.1 µM; in assay [10] it was 1.22 µM.

Regarding `C=CC(=O)NCCOc1cccc(Nc2cc(NCCCNC(=O)C3CCC3)c(Br)cn2)c1`, the GI50 in [1] was 2.49 µM; in [2], 0.963 µM; in [3], 0.819 µM; in [4], 1.12 µM; in [5] it was 0.478 µM; in assay [6], 0.881 µM. For the same molecule, the GI50 in [7] was 1.07 µM; in assay [8] it was 1.39 µM; in assay [9], 0.826 µM; in [10], 0.781 µM. Besides, the TGI in [1] is 7.59 µM; in [2] it was 12.9 µM; in assay [3] it was 4.96 µM; in [4] it was 4.53 µM; in assay [5], 1.48 µM; in assay [6], 14.7 µM. The TGI in assay [7] is 7.16 µM; in [8], 5.24 µM; in assay [9] it was greater than 25 µM; in assay [10], 10.3 µM.

For `CCN1CCC2(CC1)NC(=O)c1c(c3ccc(Cl)c(Cl)c3n1C)C2C#N` (stereo not drawn), the GI50 in assay [1] is 1.73 µM; in [2], 3.11 µM; in assay [3] it was 5.81 µM; in assay [4], 2.34 µM; in assay [5], 1.97 µM; in assay [6], 3.13 µM. In addition, the GI50 is 3.71 µM in [7], 1.61 µM in assay [8], greater than 100 µM in [9] and 1.56 µM in [10]. The TGI turned out to be 3.26 µM in assay [1]; 8.97 µM in assay [2]; 21.7 µM in assay [3]; 6.45 µM in assay [4]; 4.43 µM in assay [5]; 13.5 µM in assay [6]. The TGI in assay [7] was 16 µM; in assay [8] it was 3.06 µM; in assay [9] it was greater than 100 µM; in assay [10], 3.28 µM.

As to `COc1ccc(N2CCN(CN3CCN(c4ccc(OC)cc4)C3)C2)cc1`, the GI50 in assay [1] was 50.4 µM; in [2], 17 µM; in assay [3], greater than 100 µM; in [4], greater than 100 µM; in assay [5], greater than 100 µM; in assay [6] it was greater than 100 µM. Further, the GI50 in assay [7] was 48 µM; in assay [8], greater than 100 µM; in [9], 57.9 µM; in assay [10], 69.5 µM. Besides, the TGI in assay [1], in assay [2], in [3], in [4], in assay [5] and in [6] was greater than 100 µM throughout. Also, the TGI in assay [7], in [8], in [9] and in assay [10] was greater than 100 µM each time.

Turning to `Clc1ccccc1-c1nc(-c2ccncc2)no1`, the TGI in assay [1] was 84.8 µM; in [2] it was greater than 100 µM; in [3], greater than 100 µM; in assay [4] it was greater than 100 µM; in [5] it was greater than 100 µM; in [6], greater than 100 µM. For the same molecule, the TGI in [7] is greater than 100 µM; in assay [8], 56.4 µM; in [9], greater than 100 µM; in assay [10], greater than 100 µM.

As for `COc1cc(/C=C/C(=O)NC[C@]2(O)CCC3C4CCc5cc(O)ccc5C4CCC32C)ccc1O` (stereo partly drawn), the GI50 in assay [1] was 8.62 µM; in [2] it was 10.9 µM; in assay [3], 6.89 µM; in assay [4], 9.47 µM; in [5] it was 18 µM; in assay [6], 7.64 µM. Besides, the GI50 is 5.63 µM in assay [7], 2.91 µM in [8], 21.8 µM in assay [9] and 13.4 µM in assay [10]. Further, the TGI in assay [1] was 32.4 µM; in [2], 62.7 µM; in assay [3], 51.7 µM; in assay [4], greater than 100 µM; in [5] it was greater than 100 µM; in assay [6] it was greater than 100 µM. Moreover, the TGI in [7] was 34 µM; in [8] it was 19.3 µM; in assay [9], greater than 100 µM; in assay [10], greater than 100 µM.

With `S=c1nc[nH]c2nc[nH]c12`, the GI50 in assay [1] is 2.93 µM and 11.7 µM; in assay [2] it was 23.3 µM; in assay [3] it was 5.3 µM and 8.69 µM; in assay [4], 4.74 µM; in assay [6], 65.9 µM; in [7], 3.11 µM and 7.97 µM. For the same molecule, the GI50 in assay [8] is 5.4 µM and 46.1 µM; in [9], 0.578 µM. The TGI in [1] was > 100 µM and 463 µM and > 750 µM; in assay [2], > 100 µM and 695 µM and > 750 µM; in assay [3], > 100 µM and 302 µM and > 750 µM; in assay [4] it was greater than 730 µM; in assay [5], > 100 µM and 694 µM and > 750 µM; in assay [6], > 100 µM and 714 µM and > 750 µM. Further, the TGI in assay [7] is > 100 µM and 271 µM and > 750 µM; in assay [8] it was 62.2 µM and 285 µM and > 430 µM; in [9], 82.2 µM and 285 µM; in assay [10], > 100 µM and 512 µM and > 413 µM.

For the molecule `CC(C)[C@](O)(C(=O)OCC1=CC[N+]2([O-])CC[C@@H](O)[C@@H]12)[C@H](C)O` (stereo partly drawn), the TGI in assay [1] is greater than 10000 µM; in assay [2] it was greater than 10000 µM; in assay [3] it was greater than 10000 µM; in [4] it was greater than 9540 µM; in [5] it was greater than 10000 µM; in assay [6] it was greater than 10000 µM. Also, the TGI is greater than 6000 µM in assay [7], greater than 10000 µM in [8], greater than 10000 µM in [9] and greater than 10000 µM in [10].

Regarding `Cc1cc(C(=O)N[C@@H](CCC(=O)O)C(=O)O)sc1CC[C@@H]1CNc2nc(N)[nH]c(=O)c2C1`, the GI50 in assay [1] is 0.0751 µM; in [2] it was 0.0463 µM; in assay [3] it was 0.0322 µM; in assay [4], less than 0.0119 µM; in assay [5] it was 5.56 µM; in [6] it was 0.0436 µM. The GI50 in assay [7] was 0.0952 µM; in assay [8] it was 0.0679 µM; in [9] it was 0.0592 µM; in assay [10] it was 0.0102 µM. Besides, the TGI in assay [1], in assay [2], in assay [3], in assay [4], in assay [5] and in [6] was greater than 100 µM throughout. Moreover, the TGI in assay [7], in [8], in [9] and in assay [10] was greater than 100 µM each time.
